The values below come from patent EP4537820A1, “COMPOUND AND COMBINATIONS COMPRISING SAID COMPOUND TO IMPROVE IMMUNE RESPONSE” (Institut Gustave-Roussy, priority 2023, dated 2025).

Broadly, the IC50 is the concentration at which inhibition is half-maximal.

The subject of one experiment is A375 REGγ KO cells. The experiment can be described thus: MTT assay. In kind it is cell-based. To be noted: Homo sapiens, A-375, 24-hour treatment, read-out: IC50 (cell viability). The method, then: (§1) 2,5×10^4 of MCA cells or 5×10^4 of MCA c13 cells were plated in quadruplicates in clear 96-well plates and incubated overnight. The next day, cells were with various concentration of the tested compounds for 24h. After treatment, media was carefully removed before adding 50µL of new media and 10µL of tetrazolium salt solution (5mg/mL in PBS) and homogeneizing the well by pipetting up and down. The plate was then incubated for 2 hours at 37°C. After incubation, plate was centrifuged 5min at 1500rpm before adding 150µL of DMSO to each well to solubilize the formazan cristals. The plate was incubated on agitation for 10min and absorbance was read at 544nm using a EL808 (Biotek) plate reader.
(§2) To assess the efficacy of compound 58 against tumor cell lines, inventors initially aimed to determine its IC50 values in both mouse and human cell lines. They utilized an MTT assay to ascertain these values for mouse MCA fibrosarcoma and human A375 melanoma cell lines. Specifically, they treated 2.5 × 10^4 MCA WT or MCA REGγ KO cells and 5 × 10^4 human A375 WT or A375 REGγ KO cells with varying concentrations of compound 58 for a 24-hour duration.

The test system of experiment [1] is A375 WT cells (A375 melanoma). As to the kind of experiment: MTT assay. To be noted: Homo sapiens, A-375, 24-hour treatment, read-out: IC50 (cell viability). In kind it is cell-based. Here is the method:
as §1, §2
(Tetrazolium dyes change colour on reduction, which living cells bring about.)

The test system of another experiment is MCA REGγ KO cells. The experiment can be described thus: MTT assay. In kind it is cell-based. To be noted: Mus musculus, 24-hour treatment, read-out: IC50 (cell viability). The method, then:
as §1, §2

Experiment [2] deals with MCA WT cells (MCA fibrosarcoma). The experiment can be described thus: MTT assay. It is filed as cell-based. To be noted: Mus musculus, 24-hour treatment, read-out: IC50 (cell viability). The method, then:
as §1, §2

The target in a further experiment is T1, 20S-REGγ complex (Homo sapiens, UniProt P61289).
T1 construct: purchased Biotechne E-360-050 (20S); E-384-MTO (REGγ); host or cells: 20S from human erythrocytes
As to the kind of experiment: First confirmatory counter-screen of hits, fluorescence kinetic proteasome activity test. To be noted: counter-screen at 10, 20 and 40µM, 90min kinetic assay. It is filed as biochemical. The method, then:
The 3 chemical libraries tested were obtained from the NIH : The Natural Products set (NP.V) consisting of 390 compounds, the Oncology Approved Drugs set (AOD.IX) consisting of 147 FDA-approved compounds and the Diversity set (DIV.VI) consisting of 1584 compounds. Libraries were prepared and screened with a Biomek FXP workstation in 384 well plates. Compounds activity was assessed using a fluorescence activity test of the proteasome using the Bz-VGR-AMC fluorogenic substrate (#BML-BW9375-0005, Enzo Life Sciences). […] After preparation of the mix, plates were incubated for 2h at 37°C before being read on a Spectramax i3 microplate reader from Molecular devices (Excitation wavelength : 345nm; Emission wavelength : 445nm). […]
After QC verification, each plate was normalized to the mean of the VGR control. For every quadruplicate the most different value from the mean was eliminated and the fluorescence mean for each compound was calculated on the 3 remaining values. The percentage of inhibition of a compound was calculated according to, as follows : %Inhibition(compound) = (MeanREG,plate −Meancompound)/(MeanREG,plate −Mean20S,plate) × 100, [formula] for the condition with REG[…]. […]
After conducting the screening and validating the quality control using a custom algorithm, they analyzed the data to select their hits. […]
On the technique in general: A counterscreen serves to expose hits that act by an unwanted route or on another target.

T1 sequence (P61289 whole entry, one chain of several): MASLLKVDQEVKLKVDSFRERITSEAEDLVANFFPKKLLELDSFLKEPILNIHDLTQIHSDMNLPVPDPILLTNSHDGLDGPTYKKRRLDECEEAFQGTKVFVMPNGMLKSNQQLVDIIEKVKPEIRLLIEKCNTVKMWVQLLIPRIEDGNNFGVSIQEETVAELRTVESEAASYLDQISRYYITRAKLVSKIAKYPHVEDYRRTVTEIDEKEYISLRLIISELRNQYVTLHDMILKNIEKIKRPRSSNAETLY

As to `Cc1ccc(N=Nc2ccc(C)cc2NC(=O)Nc2ccccc2F)cc1` [compound 58], the IC50 came out at 486 µM with A375 REGγ KO cells, 150 µM in experiment [1], 99.6 µM with MCA REGγ KO cells and 39.1 µM in experiment [2]. Moreover, on 20S-REGγ complex, the “inhibition of the effect of REGγ on proteasomal protein degradation” value is reported as “inhibit the effect of REGγ on proteasomal protein degradation”.
